PubChem BioAssay (NCI)
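Five compound concentrations were applied to cells in 96-well plates for 48 hours; endpoints were derived by simple linear interpolation of the resulting dose-response curve. TGI is the concentration that stops growth completely.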

Key:
Assay in all cases: NCI tumour cell line growth inhibition, 48 h
786-0 renal = tested on: 786-0 renal
A498 renal = tested on: A498 renal
A549 NSCLC = tested on: A549 NSCLC
ACHN renal = tested on: ACHN renal
BT-549 breast = tested on: BT-549 breast
CAKI-1 renal = tested on: CAKI-1 renal
CCRF-CEM leukemia = tested on: CCRF-CEM leukemia
COLO 205 colon = tested on: COLO 205 colon
DU-145 prostate = tested on: DU-145 prostate
EKVX NSCLC = tested on: EKVX NSCLC
HCC-2998 colon = tested on: HCC-2998 colon
HCT-116 colon = tested on: HCT-116 colon
HCT-15 colon = tested on: HCT-15 colon
HL-60(TB) leukemia = tested on: HL-60(TB) leukemia
HOP-62 NSCLC = tested on: HOP-62 NSCLC
HOP-92 NSCLC = tested on: HOP-92 NSCLC
HS 578T breast = tested on: HS 578T breast
HT29 colon = tested on: HT29 colon
IGROV1 ovarian = tested on: IGROV1 ovarian
K-562 leukemia = tested on: K-562 leukemia
KM12 colon = tested on: KM12 colon
LOX IMVI melanoma = tested on: LOX IMVI melanoma
M14 melanoma = tested on: M14 melanoma
MALME-3M melanoma = tested on: MALME-3M melanoma
MCF7 breast = tested on: MCF7 breast
MDA-MB-231 breast = tested on: MDA-MB-231 breast
MDA-MB-435 = tested on: MDA-MB-435
MDA-N = tested on: MDA-N
MOLT-4 leukemia = tested on: MOLT-4 leukemia
NCI-H226 lung = tested on: NCI-H226 lung
NCI-H23 lung = tested on: NCI-H23 lung
NCI-H460 lung = tested on: NCI-H460 lung
NCI-H522 lung = tested on: NCI-H522 lung
NCI/ADR-RES ovarian = tested on: NCI/ADR-RES ovarian
OVCAR-3 ovarian = tested on: OVCAR-3 ovarian
OVCAR-4 ovarian = tested on: OVCAR-4 ovarian
OVCAR-5 ovarian = tested on: OVCAR-5 ovarian
OVCAR-8 ovarian = tested on: OVCAR-8 ovarian
PC-3 prostate = tested on: PC-3 prostate
RPMI-8226 leukemia = tested on: RPMI-8226 leukemia
RXF 393 renal = tested on: RXF 393 renal
SF-268 CNS = tested on: SF-268 CNS
SF-295 CNS = tested on: SF-295 CNS
SF-539 CNS = tested on: SF-539 CNS
SK-MEL-2 melanoma = tested on: SK-MEL-2 melanoma
SK-MEL-28 melanoma = tested on: SK-MEL-28 melanoma
SK-MEL-5 melanoma = tested on: SK-MEL-5 melanoma
SK-OV-3 ovarian = tested on: SK-OV-3 ovarian
SN12C renal = tested on: SN12C renal
SNB-19 CNS = tested on: SNB-19 CNS
SNB-75 CNS = tested on: SNB-75 CNS
SR leukemia = tested on: SR leukemia
SW-620 colon = tested on: SW-620 colon
T-47D breast = tested on: T-47D breast
TK-10 renal = tested on: TK-10 renal
U251 CNS = tested on: U251 CNS
UACC-257 melanoma = tested on: UACC-257 melanoma
UACC-62 melanoma = tested on: UACC-62 melanoma
UO-31 renal = tested on: UO-31 renal

`NC(CSS(=O)(=O)c1ccccc1)C(=O)O` (stereo not drawn) gave a TGI (786-0 renal) of over 10 µM, a TGI (A498 renal) of over 10 µM and a TGI (A549 NSCLC) of over 10 µM. For the same compound, the TGI (ACHN renal) was over 10 µM, the TGI (BT-549 breast) was over 10 µM and the TGI (CAKI-1 renal) was over 10 µM. For the same compound, the TGI (CCRF-CEM leukemia) was over 10 µM, the TGI (COLO 205 colon) was over 10 µM and the TGI (DU-145 prostate) was over 10 µM. It also gave a TGI (EKVX NSCLC) of over 10 µM, a TGI (HCC-2998 colon) of over 10 µM and a TGI (HCT-116 colon) of over 10 µM. For the same compound, the TGI (HCT-15 colon) was over 10 µM, the TGI (HL-60(TB) leukemia) was over 10 µM and the TGI (HOP-62 NSCLC) was over 10 µM. For the same compound, the TGI (HOP-92 NSCLC) was over 10 µM, the TGI (HS 578T breast) was over 10 µM and the TGI (HT29 colon) was over 10 µM. The TGI (IGROV1 ovarian) was over 10 µM, the TGI (K-562 leukemia) was over 10 µM and the TGI (KM12 colon) was over 10 µM. It also gave a TGI (LOX IMVI melanoma) of over 10 µM, a TGI (M14 melanoma) of over 10 µM and a TGI (MALME-3M melanoma) of over 10 µM. It also gave a TGI (MCF7 breast) of over 10 µM, a TGI (MDA-MB-231 breast) of over 10 µM and a TGI (MDA-MB-435) of over 10 µM. The TGI (MDA-N) was over 10 µM, the TGI (MOLT-4 leukemia) was over 10 µM and the TGI (NCI-H226 lung) was over 10 µM. It also gave a TGI (NCI-H23 lung) of over 10 µM, a TGI (NCI-H460 lung) of over 10 µM and a TGI (NCI-H522 lung) of over 10 µM. It also gave a TGI (NCI/ADR-RES ovarian) of over 10 µM, a TGI (OVCAR-3 ovarian) of over 10 µM and a TGI (OVCAR-4 ovarian) of over 10 µM. It also gave a TGI (OVCAR-5 ovarian) of over 10 µM, a TGI (OVCAR-8 ovarian) of over 10 µM and a TGI (PC-3 prostate) of over 10 µM. For the same compound, the TGI (RPMI-8226 leukemia) was over 10 µM, the TGI (RXF 393 renal) was over 10 µM and the TGI (SF-268 CNS) was over 10 µM. For the same compound, the TGI (SF-295 CNS) was over 10 µM, the TGI (SF-539 CNS) was over 10 µM and the TGI (SK-MEL-2 melanoma) was over 10 µM. It also gave a TGI (SK-MEL-28 melanoma) of over 10 µM, a TGI (SK-MEL-5 melanoma) of over 10 µM and a TGI (SK-OV-3 ovarian) of over 10 µM. It also gave a TGI (SN12C renal) of over 10 µM, a TGI (SNB-19 CNS) of over 10 µM and a TGI (SNB-75 CNS) of over 10 µM. It also gave a TGI (SR leukemia) of over 10 µM, a TGI (SW-620 colon) of over 10 µM and a TGI (T-47D breast) of over 10 µM. The TGI (TK-10 renal) was over 10 µM, the TGI (U251 CNS) was over 10 µM and the TGI (UACC-257 melanoma) was over 10 µM. For the same compound, the TGI (UACC-62 melanoma) was over 10 µM and the TGI (UO-31 renal) was over 10 µM.
For `COc1ccc(C(=O)/C=C2\C(=O)Nc3ccc(Br)cc32)cc1`, the TGI (786-0 renal) was 3.74 µM, the TGI (A498 renal) was 33.7 µM and the TGI (A549 NSCLC) was over 51.2 µM. The TGI (ACHN renal) was 3.4 µM, the TGI (BT-549 breast) was 13.8 µM and the TGI (CAKI-1 renal) was 21.4 µM. The TGI (CCRF-CEM leukemia) was 32.2 µM, the TGI (COLO 205 colon) was 4.56 µM and the TGI (DU-145 prostate) was 19.9 µM. For the same compound, the TGI (EKVX NSCLC) was 29.1 µM, the TGI (HCC-2998 colon) was 12.3 µM and the TGI (HCT-116 colon) was 8.7 µM. It also gave a TGI (HCT-15 colon) of 4.86 µM, a TGI (HL-60(TB) leukemia) of 6.37 µM and a TGI (HOP-62 NSCLC) of 37.9 µM. It also gave a TGI (HOP-92 NSCLC) of 8.39 µM, a TGI (HS 578T breast) of 50.3 µM and a TGI (HT29 colon) of 3.28 µM. For the same compound, the TGI (IGROV1 ovarian) was 11.4 µM, the TGI (K-562 leukemia) was over 100 µM and the TGI (KM12 colon) was 9.16 µM. The TGI (LOX IMVI melanoma) was 4.27 µM, the TGI (M14 melanoma) was over 48.3 µM and the TGI (MALME-3M melanoma) was 34.6 µM. It also gave a TGI (MCF7 breast) of 21.1 µM, a TGI (MDA-MB-231 breast) of 15.5 µM and a TGI (MDA-MB-435) of 27.8 µM. It also gave a TGI (MDA-N) of 16.7 µM, a TGI (MOLT-4 leukemia) of over 21.9 µM and a TGI (NCI-H226 lung) of 28.6 µM. For the same compound, the TGI (NCI-H23 lung) was 16.2 µM, the TGI (NCI-H460 lung) was 26.7 µM and the TGI (NCI-H522 lung) was 13.4 µM. For the same compound, the TGI (NCI/ADR-RES ovarian) was 3.95 µM, the TGI (OVCAR-3 ovarian) was 11.2 µM and the TGI (OVCAR-4 ovarian) was 32.1 µM. For the same compound, the TGI (OVCAR-5 ovarian) was 46.1 µM, the TGI (OVCAR-8 ovarian) was 4.7 µM and the TGI (PC-3 prostate) was 23.1 µM. It also gave a TGI (RPMI-8226 leukemia) of over 23.8 µM, a TGI (RXF 393 renal) of 5.08 µM and a TGI (SF-268 CNS) of 47.4 µM. The TGI (SF-295 CNS) was 30.6 µM, the TGI (SF-539 CNS) was 25.7 µM and the TGI (SK-MEL-2 melanoma) was 37.4 µM. For the same compound, the TGI (SK-MEL-28 melanoma) was 29 µM, the TGI (SK-MEL-5 melanoma) was over 50.4 µM and the TGI (SK-OV-3 ovarian) was 29.6 µM. The TGI (SN12C renal) was 6.62 µM, the TGI (SNB-19 CNS) was 36.2 µM and the TGI (SNB-75 CNS) was 27.8 µM. For the same compound, the TGI (SR leukemia) was over 21.2 µM, the TGI (SW-620 colon) was 7.83 µM and the TGI (T-47D breast) was 26.3 µM. The TGI (TK-10 renal) was 3.32 µM, the TGI (U251 CNS) was 34.2 µM and the TGI (UACC-257 melanoma) was 25.9 µM. The TGI (UACC-62 melanoma) was 29 µM and the TGI (UO-31 renal) was 5.05 µM.
